Experimental findings from patent US8785638B2, “Thieno [2, 3-B] pyridine derivatives as viral replication inhibitors” (Katholieke Universiteit Leuven, priority 2009, dated 2014) are described below.

Where two headings read alike, the source gives them in different places.

Data set [1] concerns the target LEDGF/p75-HIV-1 integrase interaction (Human immunodeficiency virus type 1 group M subtype B (isolate HXB2) (HIV-1), UniProt P04585). As to the kind of experiment: AlphaScreen assay of LEDGF-integrase interaction inhibition. Format: binding. The gist of the method: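 Compounds (0.1 up to 100 μM) pre-incubated 30 min at 4° C. with 300 nM His6-integrase in pH 7.4 Tris buffer, then 100 nM flag-LEDGF/p75 added for 1 h at 4° C. Ni-chelate acceptor and anti-flag donor beads (20 μg/ml each) were incubated 1 h at 30° C. before reading AlphaScreen emission.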
On the technique in general: In Alpha technology, singlet oxygen from a donor bead excites a nearby acceptor bead.

The test system of data set [2] is HIV-1 (IIIB), HIV-1 (NL4.3). The data set can be described thus: microbe, parasite or virus in culture. The class given is cell-based. To be noted: for EC50: Human immunodeficiency virus 1, IIIB, MT4, MT-4 cells, 50% protection against HIV-induced cytopathogenic effect, MTT; for SI: selectivity index, ratio of CC50 to EC50. In short, it runs like this:
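MT-4 cells infected with HIV-1 IIIB or NL4.3; protection from virus-induced cytopathic effect measured by MTT reduction, OD 540 nm. EC50 is the dose giving 50% protection; CC50 is the concentration cutting mock-infected absorbance by 50%; SI = CC50/EC50.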
(Protection from cytopathic effect is a common read-out in antiviral testing.)

A short description of data set [3]: Cytotoxicity in mock-infected MT-4 cells (MTT). To be noted: human, 50% cytotoxic concentration. The class given is cell-based. In short, it runs like this: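 MT-4 cells (HTLV-1-transformed T4 line) in RPMI 1640 with 10% FCS, mock-infected alongside HIV-infected cultures. Viability read by in situ MTT reduction, OD 540 nm. CC50 is the compound concentration cutting mock-infected control absorbance by 50%.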

[4] abbreviates: His6-tagged integrase 300 nM, flag-LEDGF/p75 100 nM, read-out: Alphascreen IC50.

The term IC50 denotes the concentration at which inhibition is half-maximal. A word on the EC50: it is the concentration giving half of the maximal effect. For orientation: CC50 means the concentration at which the toxic effect on the cells reaches its halfway point. Low values mean harm at low concentration, high ones better tolerance by the cells.

`CCCC(C(=O)O)c1c(C)nc2sc(C)c(CC)c2c1-c1ccc(C)cc1` (stereo not drawn) [Cpd 109, 2-(3-Ethyl-2,6-dimethyl-4-p-tolylthieno[2,3-b]pyridin-5-yl)pentanoic acid]: in data set [1] (setting [4]), the IC50 is 6.81 µM. Moreover, in data set [2], the EC50 was found to be 2.22 µM and the SI is 26. For the same compound, the CC50 in data set [3] is 57.9 µM.
As to `Cc1nc2sc3c(c2c(-c2ccc4ncsc4c2)c1C(OC(C)(C)C)C(=O)O)CCCC3` (stereo not drawn) [Cpd 186, 2-[2-methyl-4-(benzo[d]thiazol-6-yl)-5,6,7,8-tetrahydro[1]benzothieno[2,3-b]pyridin-3-yl]-2-tert-butoxyacetic acid], the IC50 in data set [1] (setting [4]) was found to be 0.43 µM. Also, in data set [2], the half-maximal effective concentration (EC50) was 0.038 µM and the SI is given as 2900. Further, the CC50 in data set [3] came to 110 µM.
In the case of `CCCC(C(=O)O)c1c(C)nc2sc3c(c2c1-c1cccc(OC)c1)CCCC3` (stereo not drawn) [Cpd 144, 2-[2-Methyl-4-(m-anisyl)-5,6,7,8-tetrahydro[1]benzothieno[2,3-b]pyridin-3-yl]pentanoic acid], the IC50 in data set [1] was determined as 6.64 µM. In data set [2], the EC50 turned out to be 20 µM and the SI amounted to 3. Also, the CC50 in data set [3] turned out to be 63 µM.
